Source: ChEMBL document CHEMBL1139799, “Identification of novel chemical inhibitors for ubiquitin C-terminal hydrolase-L3 by virtual screening” (Bioorg Med Chem, 2007)
Each block holds one compound with its values, some of them ahead of it. Activity calls are given as the source filed them. The calls are words filed in the database; no cut-off is given here.

Experiments:
[1] = target: T1, Ubiquitin carboxyl-terminal hydrolase isozyme L3 (Homo sapiens) (UniProt P15374); assay: Inhibition of human UCH-L3 hydrolysis activity at 387 uM
T1 sequence (whole entry): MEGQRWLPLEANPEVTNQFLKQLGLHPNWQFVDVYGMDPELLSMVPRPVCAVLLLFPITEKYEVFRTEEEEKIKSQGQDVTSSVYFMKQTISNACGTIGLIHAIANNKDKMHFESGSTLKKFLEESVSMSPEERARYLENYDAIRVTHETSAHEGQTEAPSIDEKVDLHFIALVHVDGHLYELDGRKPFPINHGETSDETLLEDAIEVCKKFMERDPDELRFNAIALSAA

[2] = target: T1, Ubiquitin carboxyl-terminal hydrolase isozyme L3 (Homo sapiens); assay: Inhibition of human UCH-L3 hydrolysis activity at 334 uM
[3] = target: T1, Ubiquitin carboxyl-terminal hydrolase isozyme L3 (Homo sapiens); assay: Inhibition of human UCH-L3 hydrolysis activity at 331 uM
[4] = target: T2, Ubiquitin carboxyl-terminal hydrolase isozyme L3 (Homo sapiens, UniProt P15374); assay: Inhibition of human UCH-L3 hydrolysis activity
T2 sequence (P15374 whole entry): T1 sequence (whole entry)

[5] = target: T1, Ubiquitin carboxyl-terminal hydrolase isozyme L3 (Homo sapiens); assay: Inhibition of human UCH-L3 hydrolysis activity at 375 uM relative to control; parameters: scale not given: the % may be the effect or the level left
[6] = target: T1, Ubiquitin carboxyl-terminal hydrolase isozyme L3 (Homo sapiens); assay: Inhibition of human UCH-L3 hydrolysis activity at 386 uM
[7] = target: T1, Ubiquitin carboxyl-terminal hydrolase isozyme L3 (Homo sapiens); assay: Inhibition of human UCH-L3 hydrolysis activity at 380 uM relative to control; parameters: scale not given: the % may be the effect or the level left
[8] = target: T1, Ubiquitin carboxyl-terminal hydrolase isozyme L3 (Homo sapiens); assay: Inhibition of human UCH-L3 hydrolysis activity at 350 uM relative to control; parameters: scale not given: the % may be the effect or the level left

- Activity [1]: inactive
SMILES: Nc1nc(CSc2nnc(-c3ccco3)n2-c2ccccc2)cs1

- IC50 [4]: 103 µM
SMILES: Cc1ccc(C(=O)C2=C(O)C(=O)N(Cc3ccccc3)C2c2cccnc2)o1 (stereo not given)

- Activity [7]: 16.2%
SMILES: Cn1c(SCc2nc(-c3cccs3)no2)nnc1-c1c[nH]c2ccccc12

Continued, compound first:

SMILES: COc1ccc(N(CC(=O)NC2CC2)S(=O)(=O)c2ccc(C)cc2)cc1
- Activity [2]: inactive

SMILES: CCS(=O)(=O)Nc1cccc(C2=NN(C(C)=O)C(c3cccs3)C2)c1 (stereo not given)
- Activity [3]: inactive

SMILES: COc1ccc(C2C(C(=O)c3cccs3)=C(O)C(=O)N2c2nncs2)cc1 (stereo not given)
- IC50 [4]: 154 µM
- Activity [5]: 76.5%

SMILES: COc1cccc(N(CC(=O)NC2CCCC2)S(=O)(=O)c2ccccc2)c1
- Activity [6]: inactive

SMILES: Cc1ccc(C(=O)C2=C(O)C(=O)N(Cc3cccnc3)C2c2ccc(F)cc2)o1 (stereo not given)
- IC50 [4]: 123 µM
- Activity [8]: 76.8%
